Test results: ChEMBL document CHEMBL3885861, “Open TG-GATES”

Species on record: Rattus norvegicus
Test: Open TG-GATES - Regimen: Daily Repeat
Format: toxicity, organism-based, Sprague-Dawley
Design: regimen Daily Repeat, gender Male, age 6 weeks
Conditions: in vivo, po, 100 mg/kg, route gavage, dose level Low; for APTT / Bas / Eos / Fbg / Hb / Ht / Lym / MCH / MCHC / MCV / Mono / Neu / PT / Plat / RBC / Ret / WBC: tissue Blood; for KIDNEY_L / KIDNEY_R / KIDNEY_TOTAL: tissue Kidney; for LIVER: tissue Liver; for A/G / ALP / ALT / AST / BUN / CRE / Ca / Cl / DBIL / GLC / IP / K / LDH / Na / PL / RALB / TBIL / TC / TG / TP / gamma-GTP: tissue Plasma

Compound: O=C(OC[C@H]1O[C@@H](OC(=O)c2cc(O)c(O)c(OC(=O)c3cc(O)c(O)c(O)c3)c2)[C@H](OC(=O)c2cc(O)c(O)c(OC(=O)c3cc(O)c(O)c(O)c3)c2)[C@@H](OC(=O)c2cc(O)c(O)c(OC(=O)c3cc(O)c(O)c(O)c3)c2)[C@@H]1OC(=O)c1cc(O)c(O)c(OC(=O)c2cc(O)c(O)c(O)c2)c1)c1cc(O)c(O)c(OC(=O)c2cc(O)c(O)c(O)c2)c1 [TANNIC ACID]
- TERMINAL_BW (72 h, time 3 day): 221.9 g
- APTT (72 h, time 3 day): 16.9 s
- Bas (72 h, time 3 day): 0%
- Eos (72 h, time 3 day): 1%
- Fbg (72 h, time 3 day): 234.4 mg/dL
- Hb (72 h, time 3 day): 13.2 g/dL
- Ht (72 h, time 3 day): 39.2%
- Lym (72 h, time 3 day): 72.6%
- MCH (72 h, time 3 day): 22.3 pg
- MCHC (72 h, time 3 day): 33.6%
- MCV (72 h, time 3 day): 66.4 fL
- Mono (72 h, time 3 day): 12.2%
- Neu (72 h, time 3 day): 14.4%
- PT (72 h, time 3 day): 11.5 s
- Plat (72 h, time 3 day): 111.4 x10_4/uL
- RBC (72 h, time 3 day): 590.2 x10_4/ul
- Ret (72 h, time 3 day): 8.8%
- WBC (72 h, time 3 day): 90.6 x10_2/uL
- KIDNEY_L (72 h, time 3 day): 1 g
- KIDNEY_R (72 h, time 3 day): 1 g
- KIDNEY_TOTAL (72 h, time 3 day): 2 g
- LIVER (72 h, time 3 day): 11.1 g
- A/G (72 h, time 3 day): 2.3
- ALP (72 h, time 3 day): 864 IU/L
- ALT (72 h, time 3 day): 33.4 IU/L
- AST (72 h, time 3 day): 61.4 IU/L
- BUN (72 h, time 3 day): 18.8 mg/dL
- CRE (72 h, time 3 day): 0.5 mg/dL
- Ca (72 h, time 3 day): 11 mg/dL
- Cl (72 h, time 3 day): 104.2 meq/L
- DBIL (72 h, time 3 day): 0 mg/dL
- GLC (72 h, time 3 day): 204.8 mg/dL
- IP (72 h, time 3 day): 8.6 mg/dL
- K (72 h, time 3 day): 4.8 meq/L
- LDH (72 h, time 3 day): 68.4 IU/L
- Na (72 h, time 3 day): 139.8 meq/L
- PL (72 h, time 3 day): 154.6 mg/dL
- RALB (72 h, time 3 day): 4 g/dL
- TBIL (72 h, time 3 day): 0.3 mg/dL
- TC (72 h, time 3 day): 84.6 mg/dL
- TG (72 h, time 3 day): 100.8 mg/dL
- TP (72 h, time 3 day): 5.7 g/dL
- gamma-GTP (72 h, time 3 day): 1.2 IU/L
- TERMINAL_BW ([…], time 7 day): 249.2 g
- TERMINAL_BW ([…], time 14 day): 296.1 g
- TERMINAL_BW ([…], time 28 day): 380.6 g
- APTT ([…], time 7 day): 16.3 s
- Bas ([…], time 7 day): 0%
- Eos ([…], time 7 day): 1%
- Fbg ([…], time 7 day): 221.6 mg/dL
- Hb ([…], time 7 day): 13.4 g/dL
- Ht ([…], time 7 day): 40.3%
- Lym ([…], time 7 day): 74.8%
- MCH ([…], time 7 day): 21 pg
- MCHC ([…], time 7 day): 33.3%
- MCV ([…], time 7 day): 63.3 fL
- Mono ([…], time 7 day): 7.4%
- Neu ([…], time 7 day): 16.8%
- PT ([…], time 7 day): 11 s
- Plat ([…], time 7 day): 122.5 x10_4/uL
- RBC ([…], time 7 day): 638.6 x10_4/ul
- Ret ([…], time 7 day): 6.5%
- WBC ([…], time 7 day): 119 x10_2/uL
- APTT ([…], time 14 day): 16.7 s
- Bas ([…], time 14 day): 0%
- Eos ([…], time 14 day): 1%
- Fbg ([…], time 14 day): 261 mg/dL
- Hb ([…], time 14 day): 14.3 g/dL
- Ht ([…], time 14 day): 42.9%
- Lym ([…], time 14 day): 74.5%
- MCH ([…], time 14 day): 20.9 pg
- MCHC ([…], time 14 day): 33.4%
- MCV ([…], time 14 day): 62.6 fL
- Mono ([…], time 14 day): 6.8%
- Neu ([…], time 14 day): 18%
- PT ([…], time 14 day): 11.5 s
- Plat ([…], time 14 day): 129.4 x10_4/uL
- RBC ([…], time 14 day): 685.8 x10_4/ul
- Ret ([…], time 14 day): 4.6%
- WBC ([…], time 14 day): 136 x10_2/uL
- APTT ([…], time 28 day): 15.9 s
- Bas ([…], time 28 day): 0%
- Eos ([…], time 28 day): 1.2%
- Fbg ([…], time 28 day): 230 mg/dL
- Hb ([…], time 28 day): 15.1 g/dL
- Ht ([…], time 28 day): 45%
- Lym ([…], time 28 day): 80.4%
- MCH ([…], time 28 day): 19.9 pg
- MCHC ([…], time 28 day): 33.5%
- MCV ([…], time 28 day): 59.5 fL
- Mono ([…], time 28 day): 5.8%
- Neu ([…], time 28 day): 12.4%
- PT ([…], time 28 day): 12 s
- Plat ([…], time 28 day): 116.4 x10_4/uL
- RBC ([…], time 28 day): 757.4 x10_4/ul
- Ret ([…], time 28 day): 2.8%
- WBC ([…], time 28 day): 142.1 x10_2/uL
- KIDNEY_L ([…], time 7 day): 1 g
- KIDNEY_R ([…], time 7 day): 1 g
- KIDNEY_TOTAL ([…], time 7 day): 2.1 g
- KIDNEY_L ([…], time 14 day): 1.1 g
- KIDNEY_R ([…], time 14 day): 1.2 g
- KIDNEY_TOTAL ([…], time 14 day): 2.3 g
- KIDNEY_L ([…], time 28 day): 1.4 g
- KIDNEY_R ([…], time 28 day): 1.5 g
- KIDNEY_TOTAL ([…], time 28 day): 2.9 g
- LIVER ([…], time 7 day): 12.2 g
- LIVER ([…], time 14 day): 13.7 g
- LIVER ([…], time 28 day): 15.5 g
- A/G ([…], time 7 day): 1.5
- ALP ([…], time 7 day): 796.4 IU/L
- ALT ([…], time 7 day): 32.2 IU/L
- AST ([…], time 7 day): 62.6 IU/L
- BUN ([…], time 7 day): 18.4 mg/dL
- CRE ([…], time 7 day): 0.5 mg/dL
- Ca ([…], time 7 day): 11.1 mg/dL
- Cl ([…], time 7 day): 103.2 meq/L
- DBIL ([…], time 7 day): 0.004 mg/dL
- GLC ([…], time 7 day): 207.4 mg/dL
- IP ([…], time 7 day): 8.3 mg/dL
- K ([…], time 7 day): 4.3 meq/L
- LDH ([…], time 7 day): 87.6 IU/L
- Na ([…], time 7 day): 138 meq/L
- PL ([…], time 7 day): 160.8 mg/dL
- RALB ([…], time 7 day): 3.6 g/dL
- TBIL ([…], time 7 day): 0.4 mg/dL
- TC ([…], time 7 day): 84.2 mg/dL
- TG ([…], time 7 day): 116.2 mg/dL
- TP ([…], time 7 day): 6 g/dL
- gamma-GTP ([…], time 7 day): 1.6 IU/L
- A/G ([…], time 14 day): 1.8
- ALP ([…], time 14 day): 726.5 IU/L
- ALT ([…], time 14 day): 32 IU/L
- AST ([…], time 14 day): 58.2 IU/L
- BUN ([…], time 14 day): 18.5 mg/dL
- CRE ([…], time 14 day): 0.6 mg/dL
- Ca ([…], time 14 day): 10.9 mg/dL
- Cl ([…], time 14 day): 102.8 meq/L
- DBIL ([…], time 14 day): 0.01 mg/dL
- GLC ([…], time 14 day): 207.5 mg/dL
- IP ([…], time 14 day): 8.3 mg/dL
- K ([…], time 14 day): 4.2 meq/L
- LDH ([…], time 14 day): 77 IU/L
- Na ([…], time 14 day): 140 meq/L
- PL ([…], time 14 day): 140.2 mg/dL
- RALB ([…], time 14 day): 3.9 g/dL
- TBIL ([…], time 14 day): 0.3 mg/dL
- TC ([…], time 14 day): 69.5 mg/dL
- TG ([…], time 14 day): 100.2 mg/dL
- TP ([…], time 14 day): 6.1 g/dL
- gamma-GTP ([…], time 14 day): 1.8 IU/L
- A/G ([…], time 28 day): 1.6
- ALP ([…], time 28 day): 659.6 IU/L
- ALT ([…], time 28 day): 34 IU/L
- AST ([…], time 28 day): 64.6 IU/L
- BUN ([…], time 28 day): 20.2 mg/dL
- CRE ([…], time 28 day): 0.6 mg/dL
- Ca ([…], time 28 day): 10.8 mg/dL
- Cl ([…], time 28 day): 106.4 meq/L
- DBIL ([…], time 28 day): 0.006 mg/dL
- GLC ([…], time 28 day): 196.8 mg/dL
- IP ([…], time 28 day): 7.4 mg/dL
- K ([…], time 28 day): 4.3 meq/L
- LDH ([…], time 28 day): 78.2 IU/L
- Na ([…], time 28 day): 139.4 meq/L
- PL ([…], time 28 day): 145.8 mg/dL
- RALB ([…], time 28 day): 3.8 g/dL
- TBIL ([…], time 28 day): 0.3 mg/dL
- TC ([…], time 28 day): 70.6 mg/dL
- TG ([…], time 28 day): 108 mg/dL
- TP ([…], time 28 day): 6.2 g/dL
- gamma-GTP ([…], time 28 day): 2 IU/L
